Patent publication US10941137B2, “Difluoromethyl-phenyl triazoles” (Boehringer Ingelheim International GmbH, priority 2018, dated 2021)

Columns and labels:
[1] = molecular target: T1, human GABAA α5β3γ2s receptor (Homo sapiens, UniProt P18507+P31644); test: Assay A: in vitro inhibition of 3H-flumazenil binding, HEK cells expressing human GABAA α5β3γ2s receptor; conditions: 3H-flumazenil 1 nM, HEK-293 membranes, 40 min at 2° C.; Ki from IC50 by Cheng and Prusoff
T1 sequence (P18507 1-475): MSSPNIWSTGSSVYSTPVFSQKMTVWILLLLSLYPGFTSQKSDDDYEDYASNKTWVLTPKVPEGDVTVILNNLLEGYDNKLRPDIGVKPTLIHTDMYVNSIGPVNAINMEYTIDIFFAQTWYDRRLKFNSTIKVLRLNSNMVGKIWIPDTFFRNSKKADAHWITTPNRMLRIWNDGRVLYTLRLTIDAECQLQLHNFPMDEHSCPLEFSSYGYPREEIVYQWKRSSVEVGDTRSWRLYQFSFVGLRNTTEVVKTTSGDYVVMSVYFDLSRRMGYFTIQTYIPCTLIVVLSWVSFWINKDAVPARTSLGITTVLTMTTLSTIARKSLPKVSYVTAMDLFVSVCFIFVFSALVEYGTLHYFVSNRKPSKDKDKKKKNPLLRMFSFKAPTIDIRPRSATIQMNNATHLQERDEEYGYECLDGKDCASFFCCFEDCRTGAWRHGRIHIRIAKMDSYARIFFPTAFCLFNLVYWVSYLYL
T1 sequence (P31644 1-462): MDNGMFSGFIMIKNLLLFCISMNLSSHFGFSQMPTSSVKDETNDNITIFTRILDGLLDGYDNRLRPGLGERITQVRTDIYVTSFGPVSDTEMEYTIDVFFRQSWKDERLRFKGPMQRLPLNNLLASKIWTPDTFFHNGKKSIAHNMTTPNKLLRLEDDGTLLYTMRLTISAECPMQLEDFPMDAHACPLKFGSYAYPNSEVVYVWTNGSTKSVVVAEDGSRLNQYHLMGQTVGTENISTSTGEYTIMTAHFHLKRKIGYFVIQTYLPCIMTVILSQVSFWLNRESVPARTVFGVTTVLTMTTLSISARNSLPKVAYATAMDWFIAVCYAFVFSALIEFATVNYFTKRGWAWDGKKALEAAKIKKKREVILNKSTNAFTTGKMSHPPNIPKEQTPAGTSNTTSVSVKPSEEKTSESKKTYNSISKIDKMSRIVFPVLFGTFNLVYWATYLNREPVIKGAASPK
Description: HEK-293 cell lines with stable expression of recombinant human GABAA α5β3γ2s receptors (plasmid H46/E9/B10) are seeded in T175 polystyrene flasks or roller bottles (1700 cm^2, Fisher Scientific CCI-431191), and cultured (37 C, 5% CO˜) in Dulbecco's Modified Eagle Medium (DMEM) with GlutaMAX™ supplemented with 10% fetal bovine serum and one or both of the following antibiotics: hygromycin B ([…]; γ2 subunit) or G418 (0.5 mg/ml; […]).
When the cultures reach confluency, the DMEM is removed and the cells are washed (10 ml for T175 flasks; 50 ml for roller bottles) once in Dulbecco's Phosphate Buffered Saline (DPBS). Following addition of DPBS to the cultures (10 ml for T175 flasks; 100 ml for roller bottles) for approximately 5 min cells are easily detached from the surface by shaking or tapping the flask gently. The cell suspension is transferred to Falcon tubes and centrifuged at 23,500×g for 10 min at 2° C. The pellet is washed once in 15 ml Tris-citrate buffer (50 mM, pH 7.1) using an Ultra-Turrax homogenizer and centrifuged at 2° C. for 10 min at 27,000×g. The washed pellet is re-suspended in 15 ml Tris-citrate buffer and frozen at −80° C. until the day of the binding experiment.
On the day of the experiment the cell membrane preparation is thawed and centrifuged at 2° C. for 10 min at 27,000×g. The pellet is re-suspended, using an Ultra-Turrax homogenizer in Tris-citrate buffer, to 15-50 µg protein per assay and then used for binding assays.
Non-specific binding is determined using clonazepam (1 μM, final concentration).
All dilutions of test compounds and incubation of assay are performed in glass vials/96-vial plates. […] Compounds are dissolved in 100% DMSO (10 mM stock), diluted in 48% ethanol-water, and tested in triplicate in serial 1:3 or 1:10 dilutions. When screening large numbers of compounds only one concentration of each compound is tested in single wells. Reference compounds are not included routinely, but for each experiment performed total and nonspecific binding is compared to data obtained during validation of the assay.
Binding is either terminated by rapid filtration onto
1) Whatman GF/C glass fibre filters using a Brandel Cell harvester, followed by 5 washes with 1 ml ice-cold buffer or onto 2) UniFilter GF/C glass fibre filter plates using a Tomtec cell harvester, followed by washing with approximately 5 ml ice-cold buffer.
The amount of radioactivity on the filters is determined by conventional liquid scintillation counting using a
1) Tri-Garb™ counter (PerkinElmer Life and Analytical Sciences) for separate large filters or
2) Topcount™ counter (PerkinElmer Life and Analytical Sciences) for 96-well filter plates. Specific binding is total binding minus non-specific binding.
For screening purposes n is set to 1. The IC50 value is calculated from the concentration response curves by the non-linear regression method using the curve-fitting program GraphPad Prism. […]

[2] = Metabolic stability in human liver microsomes (Human MST); type: in vitro ADME; conditions: pooled human liver microsomes, pH 7.6; human liver microsomes 1 mg/mL, 1 μM compound, NADPH 1 mM, 37° C.; read-out: Human MST t1/2
Description: Assessment of Metabolic Stability in Human Liver Microsomes (Human MST) The metabolic stability of the compounds according to the invention may be investigated as follows: The metabolic degradation of the test compound is assayed at 37° C. with pooled human liver microsomes. The final incubation volume of 100 μL per time point contains TRIS buffer pH 7.6 at room temperature (0.1 M), MgCl2 (5 mM), microsomal protein (1 mg/mL) and the test compound at a final concentration of 1 μM. Following a short pre-incubation period at 37° C., the reactions are initiated by addition of beta-nicotinamide adenine dinucleotide phosphate, reduced form (NADPH, 1 mM), and terminated by transferring an aliquot into solvent after different time points. After centrifugation (10000 g, 5 min), an aliquot of the supernatant is assayed by LCMS/MS for the amount of parent compound. The half-life (t½) is determined by the slope of the semi-logarithmic plot of the concentration-time profile.

| Compound | Ki [1] [nM] | half-life at 1 μM [2] [h] |
| --- | --- | --- |
| Cc1nnn(-c2ccc(C(F)F)cc2)c1COc1ccc(-n2cnc(C(C)(C)O)c2)nn1 [Example 39, 2-{1-[6-({1-[4-(difluoromethyl)phenyl]-4-methyl-1H-1,2,3-triazol-5-yl}methoxy)pyridazin-3-yl]-1H-imidazol-4-yl}propan-2-ol] | 0.14 | > 2.17 |
| Cc1nnn(-c2ccc(C(F)F)cc2)c1COc1ccc(-n2cnc(C(C)O)c2)nn1 (stereo not shown) [Example 40] | 0.16 | > 2.17 |
